Results from US8772499B2, “TRPV3 modulators” (AbbVie Inc., priority 2011, dated 2014).
Where two headings read alike, the source gives them in different places.

Experiments:
human TRPV3 = target: T1, human TRPV3 (Homo sapiens, UniProt Q8NET8); assay: In vitro antagonism of recombinant human TRPV3 activation (FLIPR Tetra calcium assay); assay type: cell-based; settings: HEK293 cells stably expressing human TRPV3, agonist 2-APB at 80 μM
T1 construct: expressed in transfected cells
T1 sequence (Q8NET8 1-790): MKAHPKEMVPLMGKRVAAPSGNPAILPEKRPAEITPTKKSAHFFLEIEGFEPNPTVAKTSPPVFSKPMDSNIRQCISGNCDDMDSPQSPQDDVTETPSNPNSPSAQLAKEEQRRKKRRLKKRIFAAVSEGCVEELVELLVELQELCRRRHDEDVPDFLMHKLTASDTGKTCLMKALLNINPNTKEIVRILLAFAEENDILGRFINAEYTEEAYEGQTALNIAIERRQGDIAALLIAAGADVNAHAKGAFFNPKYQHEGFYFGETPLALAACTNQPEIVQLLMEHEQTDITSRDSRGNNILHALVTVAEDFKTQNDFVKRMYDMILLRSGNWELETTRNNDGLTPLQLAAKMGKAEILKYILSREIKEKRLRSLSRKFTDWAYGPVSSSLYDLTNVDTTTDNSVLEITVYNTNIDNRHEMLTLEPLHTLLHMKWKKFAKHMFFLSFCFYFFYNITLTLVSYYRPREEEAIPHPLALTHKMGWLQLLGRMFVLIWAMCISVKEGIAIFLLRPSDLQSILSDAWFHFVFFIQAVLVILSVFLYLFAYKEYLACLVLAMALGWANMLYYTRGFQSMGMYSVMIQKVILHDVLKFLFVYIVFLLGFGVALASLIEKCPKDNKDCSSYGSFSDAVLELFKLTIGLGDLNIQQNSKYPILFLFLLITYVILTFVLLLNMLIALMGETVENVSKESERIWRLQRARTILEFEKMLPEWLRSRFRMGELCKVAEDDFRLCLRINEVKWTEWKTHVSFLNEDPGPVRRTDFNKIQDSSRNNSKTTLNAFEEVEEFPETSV
Summary of the method: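 HEK293 cells stably expressing human TRPV3, loaded with Calcium-4 dye for 90–120 min, received compound in DPBS, then 80 μM 2-APB (EC80) 3 min later. Max-minus-min fluorescence expressed as % of 2-APB response without antagonist; IC50 values mostly averages of n≥2 runs.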

[1] = In vitro rat microsomal stability assay; assay type: in vitro ADME, rat (Sprague-Dawley)
Summary of the method: (§1)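 Test compounds were incubated at 37° C. with Sprague-Dawley rat liver microsomes or with human liver microsomes. NADPH was supplied as cofactor and was also added to the time-zero plates.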

[2] = In vitro human microsomal stability assay; assay type: in vitro ADME
Summary of the method: as §1

[3] = actual measured value shown parenthetically, in most cases average of at least two runs, read-out: IC50
[4] = Sprague-Dawley, rat, microsomes, 0.5 h, 0.5 μM, pH 7.4
[5] = human, microsomes, 0.5 h, 0.5 μM, pH 7.4
[6] = reported range, read-out: IC50 (range class)
[7] = rat liver microsomes (Sprague-Dawley), 0.5 μM substrate, 0.25 mg/mL microsomal protein, pH 7.4, 37° C., NADPH, 30 minutes
[8] = human liver microsomes, 0.5 μM substrate, 0.25 mg/mL microsomal protein, pH 7.4, 37° C., NADPH, 30 minutes

SMILES	IC50 (human TRPV3; [3]) [nM]	RAT MICROSOMAL STABILITY (% REMAINING AFTER 30 MINUTES) [1, 4] [%]	HUMAN MICROSOMAL STABILITY (% REMAINING AFTER 30 MINUTES) [2, 5] [%]	IC50 (human TRPV3; [6]) [nM]	RAT MICROSOMAL STABILITY (% REMAINING AFTER 30 MINUTES) [1, 7] [%]	HUMAN MICROSOMAL STABILITY (% REMAINING AFTER 30 MINUTES) [2, 8] [%]
NC1CCCC1C(O)C1(c2cccc(C(F)(F)F)c2)CCC1 (stereo not drawn) [Example 204, (2-aminocyclopentyl) {1-[3-(trifluoromethyl)phenyl]cyclobutyl}methanol]	1600	>85	>85			
OC(c1ccccn1)C1(C2=CCCC(C(F)(F)F)C2)CCC1 (stereo not drawn) [Example 261, pyridin-2-yl{1-[5-(trifluoromethyl)cyclohex-1-en-1-yl]cyclobutyl}methanol]	1270	<0.01	0.01			
CN(C)N=C1CC(c2ccc(OC(F)(F)F)cc2)([C@H](O)c2ccccn2)C1 (stereo partly drawn) [Example 267, (S)-{3-(dimethylhydrazinylidene)-1-[4-(trifluoromethoxy)phenyl]-cyclobutyl}(pyridin-2-yl)methanol]	2410	10	64			
OC(C1CCCc2cccnc21)C1(c2ccccc2C(F)(F)F)CCC1 (stereo not drawn) [Example 195, (anti)-5,6,7,8-tetrahydroquinolin-8-yl{1-[2-(trifluoromethyl)phenyl]-cyclobutyl}methanol]	> 20000	<0.01	<0.01	> 20000		
OC(c1ccccn1)C1(c2cccc(OC(F)(F)F)c2)CCCO1 (single isomer, unassigned) [Example 93, (syn)-pyridin-2-yl{2-[3-(trifluoromethoxy)phenyl]tetrahydrofuran-2-yl}methanol]	590	0.33	12			
CC(C)(C)OC(=O)N1CCC(c2cccc(OC(F)(F)F)c2)(C(O)c2ccccn2)CC1 (stereo not drawn) [Example 158, tert-butyl 4-[hydroxy(pyridin-2-yl)methyl]-4-[3-(trifluoromethoxy)phenyl]-piperidine-1-carboxylate]	> 20000			> 20000	0.04	3.7
CN1CCC(c2ccc(Cl)c(Cl)c2)(C(O)c2ccccn2)CC1 (stereo not drawn) [Example 141, [4-(3,4-dichlorophenyl)-1-methylpiperidin-4-yl](pyridin-2-yl)methanol]	> 20000			> 20000	59	>85
NC1CCCCC1C(O)C1(c2cccc(C(F)(F)F)c2)CCC1 (stereo not drawn) [Example 212, (2-aminocyclohexyl) {1-[3-(trifluoromethyl)phenyl]cyclobutyl}methanol]	2870	3.9	>85			
Cl.O[C@H](c1ccccn1)C1(c2ccc(Cl)c(Cl)c2)CC(F)(F)C1 [Example 111, (S)-[1-(3,4-dichlorophenyl)-3,3-difluorocyclobutyl](pyridin-2-yl)methanol hydrochloride]	190				23	52
CC1(O)CC(c2ccc(OC(F)(F)F)cc2)(C(O)c2ncccn2)C1 [Example 310, trans-3-((S)-hydroxy(pyrimidin-2-yl)methyl)-1-methyl-3-(4-(trifluoromethoxy)phenyl)cyclobutanol]	> 20000	>85	>85	> 20000		
N[C@H]1CCC[C@H]1[C@@H](O)C1(c2ccccc2F)CCC1 [Example 226, (R)-[(1R,2S)-2-aminocyclopentyl][1-(2-fluorophenyl)cyclobutyl]methanol]	790	<0.01	>85			
Cc1ccccc1C(C)C1(C(O)c2ccccn2)CCC1 (stereo not drawn) [Example 45, {1-[1-(2-methylphenyl)ethyl]cyclobutyl}(pyridin-2-yl)methanol]	2220	0.02	0.03			
OC(c1ccccn1)C1(c2ccncc2)CCC1 (stereo not drawn) [Example 21, pyridin-2-yl(1-pyridin-4-ylcyclobutyl)methanol]	> 20000	52	71	> 20000		
OC(C1CCCc2cccnc21)C1(c2ccc(F)c(F)c2)CCC1 (single isomer, unassigned) [Example 169, (anti)-[1-(3,4-difluorophenyl)cyclobutyl][5,6,7,8-tetrahydroquinolin-8-yl]-methanol]	5820	<0.01	<0.01			
OC(c1ccccn1)C1(c2ccc(F)c(C(F)(F)F)c2)CC(F)(F)C1 (stereo not drawn) [Example 139, {3,3-difluoro-1-[4-fluoro-3-(trifluoromethyl)phenyl]cyclobutyl}(pyridin-2-yl)methanol]	750	26	41			
O[C@H](c1ccccn1)C1(c2ccc(C(F)(F)F)cc2)CCC1 [Example 28, (S)-pyridin-2-yl{1-[4-(trifluoromethyl)phenyl]cyclobutyl}methanol]	440	13	12			
OC(C1CCCc2cccnc21)C1(c2ccc(C(F)(F)F)cc2)CCC1 (single isomer, unassigned) [Example 183, (anti)-5,6,7,8-tetrahydroquinolin-8-yl{1-[4-(trifluoromethyl)phenyl]-cyclobutyl}methanol]	1400	<0.01	<0.01			
CN1CCC(c2ccc(OC(F)(F)F)cc2)(C(O)c2ccccn2)CC1 (stereo not drawn) [Example 145, {1-methyl-4-[4-(trifluoromethoxy)phenyl]piperidin-4-yl}(pyridin-2-yl)-methanol]	1770				42	68
OC(c1ccccn1)C1(C2CCC(C(F)(F)F)CC2)CCC1 (stereo not drawn) [Example 280, pyridin-2-yl{1-[4-(trifluoromethyl)cyclohexyl]cyclobutyl}methanol]	1950	<0.01	9.0			
CN1CCC(c2ccc(C(F)(F)F)cc2)(C(O)c2ccccn2)CC1 (stereo not drawn) [Example 143, {1-methyl-4-[4-(trifluoromethyl)phenyl]piperidin-4-yl}(pyridin-2-yl)-methanol]	> 20000			> 20000	80	>85
O=C1CC(c2cccc(OC(F)(F)F)c2)(C(O)c2ccccn2)C1 (stereo not drawn) [Example 237, 3-[hydroxy(pyridin-2-yl)methyl]-3-[3-(trifluoromethoxy)phenyl]-cyclobutanone]	3660	50	51			
